Test results: patent US11090308B2, “Methods of treating liver disorders or lipid disorders with a THR-beta agonist” (Madrigal Pharmaceuticals, Inc., priority 2016, dated 2021)

Key:
Assay type in all cases: in vitro ADME
CYP1A2 = target: T1, CYP1A2 (Homo sapiens, UniProt P05177); assay: In vitro Cytochrome P-450 enzyme assay, CYP1A2
T1 sequence (P05177 1-516): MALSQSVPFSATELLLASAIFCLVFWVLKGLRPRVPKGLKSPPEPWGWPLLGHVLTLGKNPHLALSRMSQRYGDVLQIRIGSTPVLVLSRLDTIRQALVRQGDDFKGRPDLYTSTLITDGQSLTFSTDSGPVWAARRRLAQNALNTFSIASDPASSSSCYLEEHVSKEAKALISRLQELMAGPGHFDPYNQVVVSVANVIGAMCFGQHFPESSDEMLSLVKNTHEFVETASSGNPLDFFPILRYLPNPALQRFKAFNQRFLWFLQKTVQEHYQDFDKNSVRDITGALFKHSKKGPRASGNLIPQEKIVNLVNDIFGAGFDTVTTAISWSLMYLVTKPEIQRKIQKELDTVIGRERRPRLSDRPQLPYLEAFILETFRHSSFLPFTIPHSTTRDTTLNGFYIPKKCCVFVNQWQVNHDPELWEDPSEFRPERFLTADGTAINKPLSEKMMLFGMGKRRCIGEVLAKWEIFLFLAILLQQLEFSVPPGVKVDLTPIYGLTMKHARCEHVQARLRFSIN
Excerpt: (§1) The following studies have been conducted: (a) in vitro drug protein binding, transporter (organic anion transporting polypeptide [OATP], P-glycoprotein [P-gp], breast cancer-related protein [BCRP], and multiple drug resistance protein 1 [MDR1]), and cytochrome P-450 enzyme assays to investigate absorption, distribution, and excretion; (b) in vivo MGL-3196 rat and dog oral PK and bioavailability studies; (c) in vivo ^14C-MGL-3196 rat and dog oral pharmacokinetics, absorption, excretion, and tissue distribution by quantitative whole-body autoradiography (QWBA) studies; and (d) liver disposition of MGL-3196 using an in vitro sandwiched hepatocyte model system (B-CLEAR® technology) in dog (SCDH) and human (SCHH) hepatocytes.

CYP3A4/5 = assay: In vitro Cytochrome P-450 enzyme assay, CYP3A4/5
OAT3 = target: T2, OAT3 (Homo sapiens, UniProt Q8TCC7); assay: In vitro drug transporter assay, OAT3; details: read-out: Inhibitor of: OAT3, IC50
T2 sequence (Q8TCC7 1-542): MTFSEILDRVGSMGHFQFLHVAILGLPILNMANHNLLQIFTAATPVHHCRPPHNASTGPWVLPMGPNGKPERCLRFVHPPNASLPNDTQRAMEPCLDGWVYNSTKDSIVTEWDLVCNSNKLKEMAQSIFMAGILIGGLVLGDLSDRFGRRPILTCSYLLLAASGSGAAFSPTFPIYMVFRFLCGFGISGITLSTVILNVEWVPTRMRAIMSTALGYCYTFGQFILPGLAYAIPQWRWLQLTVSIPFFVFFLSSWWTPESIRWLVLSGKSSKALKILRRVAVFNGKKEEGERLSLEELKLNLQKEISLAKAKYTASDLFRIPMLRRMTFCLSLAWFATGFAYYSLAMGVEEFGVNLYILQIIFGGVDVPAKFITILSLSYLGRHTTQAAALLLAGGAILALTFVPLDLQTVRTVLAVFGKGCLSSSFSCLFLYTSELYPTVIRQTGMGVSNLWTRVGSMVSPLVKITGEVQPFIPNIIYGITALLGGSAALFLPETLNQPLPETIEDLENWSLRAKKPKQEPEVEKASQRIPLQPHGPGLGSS

CYP2C19 = CYP2C19 (Homo sapiens, UniProt P33261); assay: In vitro Cytochrome P-450 enzyme assay, CYP2C19
CYP2C19, sequence (P33261 whole entry): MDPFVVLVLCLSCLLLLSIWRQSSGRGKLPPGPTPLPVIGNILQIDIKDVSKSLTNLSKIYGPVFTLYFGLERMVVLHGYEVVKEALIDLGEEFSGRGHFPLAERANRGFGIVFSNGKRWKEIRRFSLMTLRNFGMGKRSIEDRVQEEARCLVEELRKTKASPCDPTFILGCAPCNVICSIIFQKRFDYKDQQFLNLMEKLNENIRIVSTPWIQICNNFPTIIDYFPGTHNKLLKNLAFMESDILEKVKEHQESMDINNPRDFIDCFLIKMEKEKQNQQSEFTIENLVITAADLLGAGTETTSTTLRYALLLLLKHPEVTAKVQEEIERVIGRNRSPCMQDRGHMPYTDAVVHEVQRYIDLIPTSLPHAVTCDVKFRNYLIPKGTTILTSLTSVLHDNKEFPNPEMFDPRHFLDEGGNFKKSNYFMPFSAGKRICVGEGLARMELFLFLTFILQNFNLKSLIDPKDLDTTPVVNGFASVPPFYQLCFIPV

OATP1B3 = target: T3, OATP1B3 (Homo sapiens, UniProt Q9NPD5); assay: In vitro drug transporter assay, OATP1B3
T3 sequence (Q9NPD5 1-702): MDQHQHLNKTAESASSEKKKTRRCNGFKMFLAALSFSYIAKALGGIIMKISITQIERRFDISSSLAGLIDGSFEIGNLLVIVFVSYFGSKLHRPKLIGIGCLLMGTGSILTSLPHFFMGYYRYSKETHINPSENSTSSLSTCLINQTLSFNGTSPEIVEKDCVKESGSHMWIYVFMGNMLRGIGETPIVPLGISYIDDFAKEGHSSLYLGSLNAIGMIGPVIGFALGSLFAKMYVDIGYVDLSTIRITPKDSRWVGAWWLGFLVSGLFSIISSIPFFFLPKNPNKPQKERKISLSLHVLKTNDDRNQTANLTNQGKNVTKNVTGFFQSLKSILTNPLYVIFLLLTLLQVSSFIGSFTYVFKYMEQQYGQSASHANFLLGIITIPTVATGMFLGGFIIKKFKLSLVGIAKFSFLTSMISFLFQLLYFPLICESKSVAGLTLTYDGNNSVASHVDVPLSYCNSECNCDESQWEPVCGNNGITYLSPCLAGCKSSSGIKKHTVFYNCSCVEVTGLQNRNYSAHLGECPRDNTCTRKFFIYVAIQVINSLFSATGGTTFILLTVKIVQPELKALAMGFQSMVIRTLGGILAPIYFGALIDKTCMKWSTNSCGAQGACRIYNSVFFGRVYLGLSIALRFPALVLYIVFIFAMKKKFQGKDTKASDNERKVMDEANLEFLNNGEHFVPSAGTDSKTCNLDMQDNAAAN
Excerpt: as §1

CYP2B6 = target: T4, CYP2B6 (Homo sapiens, UniProt P20813); assay: In vitro Cytochrome P-450 enzyme assay, CYP2B6
T4 sequence (P20813 1-491): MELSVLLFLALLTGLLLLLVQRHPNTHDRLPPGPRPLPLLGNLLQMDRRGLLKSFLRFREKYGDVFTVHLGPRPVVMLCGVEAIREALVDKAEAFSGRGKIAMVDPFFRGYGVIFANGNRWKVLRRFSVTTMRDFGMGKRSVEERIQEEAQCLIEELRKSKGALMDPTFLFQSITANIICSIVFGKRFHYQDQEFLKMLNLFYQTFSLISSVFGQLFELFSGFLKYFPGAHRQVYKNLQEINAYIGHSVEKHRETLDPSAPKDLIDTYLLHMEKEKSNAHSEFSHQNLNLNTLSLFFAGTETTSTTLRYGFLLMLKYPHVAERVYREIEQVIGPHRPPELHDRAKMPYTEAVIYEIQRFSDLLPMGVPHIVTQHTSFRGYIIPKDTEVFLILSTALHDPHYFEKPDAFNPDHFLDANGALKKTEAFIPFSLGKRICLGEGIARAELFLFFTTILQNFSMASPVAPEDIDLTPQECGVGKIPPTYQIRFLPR
Excerpt: as §1

CC(C)c1cc(Oc2c(Cl)cc(-n3nc(C#N)c(=O)[nH]c3=O)cc2Cl)n[nH]c1=O [MGL-3196, 2-(3,5-dichloro-4-((5-isopropyl-6-oxo-1,6-dihydropyridazin-3-yl)oxy)phenyl)-3,5-dioxo-2,3,4,5-tetrahydro-1,2,4-triazine-6-carbonitrile]
Inhibitor of: CYP1A2 (CYP1A2): not an inhibitor | Inhibitor of: CYP3A4/5 (CYP3A4/5): not an inhibitor | IC50 (OAT3): 4.5 µM | Inhibitor of: CYP2C19 (CYP2C19): not an inhibitor | Substrate for: OATP1B3 (OATP1B3): OATP1B3; | Inhibitor of: OATP1B3, % inhibition (OATP1B3; @ 10 uM Pravastatin): OATP1B3 (57% @ 10 uM Pravastatin) | Inhibitor of: CYP2B6 (CYP2B6): not an inhibitor

CC(CO)c1cc(Oc2c(Cl)cc(-n3nc(C#N)c(=O)[nH]c3=O)cc2Cl)n[nH]c1=O (stereo not shown) [MGL-3623]
IC50 (CYP1A2; read-out: Inhibitor of: CYP1A2, IC50): > 50 µM | IC50 (CYP3A4/5; human, weak, read-out: Inhibitor of: CYP3A4/5, IC50): 35 µM | IC50 (CYP2C19; range given jointly for CYP2B6, CYP2C9, CYP2C19, weak, read-out: Inhibitor of: CYP2C19, IC50): 24 to 35 µM | Substrate for: OATP1B3 (OATP1B3): OATP1B3 | IC50 (OATP1B3; weak, read-out: Inhibitor of: OATP1B3, IC50): 22.6 µM | IC50 (CYP2B6; range given jointly for CYP2B6, CYP2C9, CYP2C19, weak, read-out: Inhibitor of: CYP2B6, IC50): 24 to 35 µM
